Results from patent publication US20250250230A1, “HETEROCYCLIC COMPOUND” (TAKEDA PHARMACEUTICAL COMPANY LIMITED, priority 2022, published 2025).

target: T1, human orexin type 2 receptor (Homo sapiens, UniProt O43614); assay: Measurement of orexin type 2 receptor agonist activity (calcium fluorescence, Fluo-4 AM, FDSS); type: cell-based; conditions: test compound 3 μM; CHO cells expressing human OX2 receptor; DMSO = 0%, orexin A (human) = 100%
T1 construct: expressed in transfected cells
T1 sequence (O43614 1-444): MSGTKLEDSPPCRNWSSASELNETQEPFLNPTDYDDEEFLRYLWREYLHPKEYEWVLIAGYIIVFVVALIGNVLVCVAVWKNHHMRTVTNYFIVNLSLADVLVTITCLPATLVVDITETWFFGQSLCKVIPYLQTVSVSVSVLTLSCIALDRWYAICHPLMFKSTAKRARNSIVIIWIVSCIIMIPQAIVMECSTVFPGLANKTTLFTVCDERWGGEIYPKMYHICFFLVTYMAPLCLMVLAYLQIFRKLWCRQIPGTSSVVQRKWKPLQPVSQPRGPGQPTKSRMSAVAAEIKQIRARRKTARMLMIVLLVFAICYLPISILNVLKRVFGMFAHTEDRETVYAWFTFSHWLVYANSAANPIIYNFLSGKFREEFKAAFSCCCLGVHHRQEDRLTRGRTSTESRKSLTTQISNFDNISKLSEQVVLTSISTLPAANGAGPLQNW
Outline: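 CHO-K1 cells stably expressing human OX2R were loaded with Fluo-4 AM (30 min 37 °C, 30 min RT) in HEPES-buffered HBSS with 0.1% BSA and probenecid. Calcium fluorescence was followed on FDSS for 2 min after compound addition; activity normalised to DMSO (0%) and 10 nM orexin A (100%).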

Compared with `CN(C)S(=O)(=O)NCC1CN(C(=O)[C@@H]2C[C@H]2c2ccccc2-c2c(F)cccc2F)CCO1` (stereo in doubt) [Example 284, N′-({(2R)-4-[(1R,2R)-2-(2′,6′-difluoro[1,1′-biphenyl]-2-yl)cyclopropane-1-carbonyl]morpholin-2-yl}methyl)-N,N-dimethylsulfuric diamide], `CS(=O)(=O)N[C@H]1CCN(C(=O)[C@@H]2C[C@H]2c2ccccc2-c2c(F)cccc2F)C1` [Example 23, N-{(3S)-1-[(1R,2R)-2-(2′,6′-difluoro[1,1′-biphenyl]-2-yl)cyclopropane-1-carbonyl]pyrrolidin-3-yl}methanesulfonamide] is higher in “OX2R agonist activity (3 μM, %)” value: 94% for the first, 105% for the second.

`COC[C@@H]1CN(C(=O)[C@@H]2C[C@@]2(F)c2ccccc2-c2c(F)cccc2F)C1CNS(C)(=O)=O` (stereo in doubt) [Example 399, N-{[(2R,3R)-1-[(1S,2S)-2-(2′,6′-difluoro[1,1′-biphenyl]-2-yl)-2-fluorocyclopropane-1-carbonyl]-3-(methoxymethyl)azetidin-2-yl]methyl}methanesulfonamide] and `CS(=O)(=O)NC1CN(C(=O)C2CC2c2ccccc2-c2c(F)cccc2F)CC1(F)F` (stereo not drawn) [Example 180, N-{1-[2-(2′,6′-difluoro[1,1′-biphenyl]-2-yl)cyclopropane-1-carbonyl]-4,4-difluoropyrrolidin-3-yl}methanesulfonamide optical isomer] are the same in “OX2R agonist activity (3 μM, %)” value: 95% for the first, 95% for the second.

Compared with `CS(=O)(=O)N[C@H]1CCCN(C(=O)[C@@H]2C[C@H]2c2ccccc2-c2c(F)cccc2F)C1` [Example 24, N-{(3S)-1-[(1R,2R)-2-(2′,6′-difluoro [1,1′-biphenyl]-2-yl)cyclopropane-1-carbonyl]piperidin-3-yl}methanesulfonamide], `CS(=O)(=O)N[C@H]1CCCN(C(=O)[C@@H]2C[C@H]2c2ccccc2-c2c(F)cccc2F)CC1` [Example 25, N-{(4S)-1-[(1R,2R)-2-(2′,6′-difluoro[1,1′-biphenyl]-2-yl)cyclopropane-1-carbonyl]azepan-4-yl}methanesulfonamide] is lower in “OX2R agonist activity (3 μM, %)” value: 95% for the first, 93% for the second.

First: CS(=O)(=O)N[C@H]1CCCN(C(=O)C2CC2c2c(F)cccc2-c2c(F)cccc2F)C1 (stereo partly drawn) [Example 196, N-{(3S)-1-[(1R,2R)-2-(2′,3,6′-trifluoro[1,1′-biphenyl]-2-yl)cyclopropane-1-carbonyl]piperidin-3-yl}methanesulfonamide, or N-{(3S)-1-[(1S,2S)-2-(2′,3,6′-trifluoro[1,1′-biphenyl]-2-yl)cyclopropane-1-carbonyl]piperidin-3-yl}methanesulfonamide]
Second: CS(=O)(=O)NC1CCCN(C(=O)C2CC2c2c(F)cccc2-c2c(F)cccc2F)C1 (stereo not drawn) [Example 211, N-{1-[2-(2′-3,6′-trifluoro[1,1′-biphenyl]-2-yl)cyclopropane-1-carbonyl]piperidin-3-yl}methanesulfonamide optical isomer]
The “OX2R agonist activity (3 μM, %)” value of the first is lower: 101% for the first, 105% for the second.

Compared with `CS(=O)(=O)N[C@H]1CCCN(C(=O)C2CC2c2ccc(F)cc2-c2c(F)cccc2F)C1` (stereo partly drawn) [Example 201, N-{(3S)-1-[(1R,2R)-2-(2′,5,6′-trifluoro[1,1′-biphenyl]-2-yl)cyclopropane-1-carbonyl]piperidin-3-yl}methanesulfonamide, or N-{(3S)-1-[(1S,2S)-2-(2′,5,6′-trifluoro[1,1′-biphenyl]-2-yl)cyclopropane-1-carbonyl]piperidin-3-yl}methanesulfonamide], `CS(=O)(=O)NC1CCN(C(=O)C2CC2c2c(F)cccc2-c2c(F)cccc2F)C1` (stereo not drawn) [Example 210, N-{1-[2-(2′,3,6′-trifluoro[1,1′-biphenyl]-2-yl)cyclopropane-1-carbonyl]pyrrolidin-3-yl}methanesulfonamide optical isomer] is lower in “OX2R agonist activity (3 μM, %)” value: 101% for the first, 94% for the second.

Going from `CS(=O)(=O)N[C@@H]1CN(C(=O)C2CC2c2ccccc2-c2c(F)cccc2F)CCC1(F)F` (stereo partly drawn) [Example 215, N-{(3R)-1-[(1R,2R)-2-(2′,6′-difluoro [1,1′-biphenyl]-2-yl)cyclopropane-1-carbonyl]-4,4-difluoropiperidin-3-yl}methanesulfonamide, or N-{(3R)-1-[(1S,2S)-2-(2′,6′-difluoro[1,1′-biphenyl]-2-yl)cyclopropane-1-carbonyl]-4,4-difluoropiperidin-3-yl}methanesulfonamide] to `CCS(=O)(=O)N[C@@H]1CN(C(=O)[C@@H]2C[C@H]2c2ccccc2-c2c(F)cccc2F)CCC1(F)F` [Example 240, N-{(3R)-1-[(1R,2R)-2-(2′,6′-difluoro[1,1′-biphenyl]-2-yl)cyclopropane-1-carbonyl]-4,4-difluoropiperidin-3-yl}ethanesulfonamide], the “OX2R agonist activity (3 μM, %)” value rises from 98% to 100%.

Going from `CS(=O)(=O)N[C@@H]1CN(C(=O)C2CC2c2ccccc2-c2c(F)cccc2F)CC[C@@H]1F` (stereo partly drawn) [Example 216, N-{(3R,4S)-1-[(1R,2R)-2-(2′,6′-difluoro[1,1′-biphenyl]-2-yl)cyclopropane-1-carbonyl]-4-fluoropiperidin-3-yl}methanesulfonamide, or N-{(3R,4S)-1-[(1S,2S)-2-(2′,6′-difluoro[1,1′-biphenyl]-2-yl)cyclopropane-1-carbonyl]-4-fluoropiperidin-3-yl}methanesulfonamide] to `CS(=O)(=O)N[C@@H]1CN(C(=O)[C@@H]2C[C@H]2c2ccccc2-c2c(F)cccc2F)C[C@@H]1F` [Example 241, N-{(3R,4S)-1-[(1R,2R)-2-(2′,6′-difluoro[1,1′-biphenyl]-2-yl)cyclopropane-1-carbonyl]-4-fluoropyrrolidin-3-yl}methanesulfonamide], the “OX2R agonist activity (3 μM, %)” value rises from 99% to 103%.

Compared with `CS(=O)(=O)NC1CN(C(=O)C2CC2c2c(F)cccc2-c2c(F)cccc2F)CC1(F)F` (stereo not drawn) [Example 226, N-{4,4-difluoro-1-[2-(2′,3,6′-trifluoro[1,1′-biphenyl]-2-yl)cyclopropane-1-carbonyl]pyrrolidin-3-yl}methanesulfonamide optical isomer], `CS(=O)(=O)NC1CN(C(=O)C2CC2c2ccc(F)cc2-c2c(F)cccc2F)CC1(F)F` (stereo not drawn) [Example 245, N-{4,4-difluoro-1-[2-(2′,5,6′-trifluoro[1,1′-biphenyl]-2-yl)cyclopropane-1-carbonyl]pyrrolidin-3-yl}methanesulfonamide optical isomer] is lower in “OX2R agonist activity (3 μM, %)” value: 104% for the first, 103% for the second.

Compared with `CS(=O)(=O)N[C@H]1C[C@@H](F)CN(C(=O)[C@@H]2C[C@H]2c2ccccc2-c2c(F)cccc2F)C1` [Example 232, N-{(3S,5R)-1-[(1R,2R)-2-(2′,6′-difluoro[1,1′-biphenyl]-2-yl)cyclopropane-1-carbonyl]-5-fluoropiperidin-3-yl}methanesulfonamide], `CS(=O)(=O)NC1CCC2CN(C(=O)C3CC3c3ccccc3-c3c(F)cccc3F)CC21` (stereo not drawn) [Example 238, N-2-[(2-(2′,6′-difluoro[1,1′-biphenyl]-2-yl)cyclopropane-1-carbonyl]octahydrocyclopenta[c]pyrrol-4-yl}methanesulfonamide Optical Isomer] is lower in “OX2R agonist activity (3 μM, %)” value: 103% for the first, 98% for the second.

First: CCS(=O)(=O)N[C@H]1CCCN(C(=O)C2CC2c2ccccc2-c2c(F)cccc2F)C1 (stereo partly drawn) [Example 239, N-{(3S)-1-[(1R,2R)-2-(2′,6′-difluoro[1,1′-biphenyl]-2-yl)cyclopropane-1-carbonyl]piperidin-3-yl}ethanesulfonamide, or N-{(3S)-1-[(1S,2S)-2-(2′,6′-difluoro[1,1′-biphenyl]-2-cyclopropane-1-carbonyl]piperidin-3-yl}ethanesulfonamide]
Second: CC1(C(=O)N2CC[C@H](NS(C)(=O)=O)C2)CC1c1ccccc1-c1c(F)cccc1F (stereo partly drawn) [Example 247, N-{(3S)-1-[(1R,2S)-2-(2′,6′-difluoro[1,1′-biphenyl]-2-yl)-1-methylcyclopropane-1-carbonyl]pyrrolidin-3-yl}methanesulfonamide, or N-{(3S)-1-[(1S,2R)-2-(2′,6′-difluoro[1,1′-biphenyl]-2-yl)-1-methylcyclopropane-1-carbonyl]pyrrolidin-3-yl}methanesulfonamide]
The “OX2R agonist activity (3 μM, %)” value of the first is lower: 97% for the first, 100% for the second.

Compared with `CC1(C(=O)N2CCC[C@H](NS(C)(=O)=O)CC2)CC1c1ccccc1-c1c(F)cccc1F` (stereo partly drawn) [Example 246, N-{(4S)-1-[(1R,2S)-2-(2′,6′-difluoro[1,1′-biphenyl]-2-yl)-1-methylcyclopropane-1-carbonyl]azepan-4-yl}methanesulfonamide, or N-{(4S)-1-[(1S,2R)-2-(2′,6′-difluoro[1,1′-biphenyl]-2-yl)-1-methylcyclopropane-1-carbonyl]azepan-4-yl}methanesulfonamide], `CC1(C(=O)N2CC(NS(C)(=O)=O)C(F)(F)C2)CC1c1ccccc1-c1c(F)cccc1F` (stereo not drawn) [Example 248, N-{1-[2-(2′,6′-difluoro[1,1′-biphenyl]-2-yl)-1-methylcyclopropane-1-carbonyl]-4,4-difluoropyrrolidin-3-yl}methanesulfonamide optical isomer] is higher in “OX2R agonist activity (3 μM, %)” value: 78% for the first, 98% for the second.
